Test results reported in ChEMBL document CHEMBL4842306, “Pentadecaibins I-V: 15-Residue Peptaibols Produced by a Marine-Derived Trichoderma sp. of the Harzianum Clade” (J Nat Prod, 2021).
Non-standard residues stand in square brackets, D forms with d. Residues, ends and D or L forms follow the SMILES beside them. Phe(ol) = N[C@H](CO)Cc1ccccc1; Aib = CC(C)(N)C(=O)O

Assays:
[1] = system: Escherichia coli; test: Antibacterial activity against Escherichia coli CIP54.8T assessed as inhibition of microbial growth incubated for 24 hrs by spectrophotometry; assay type: functional
[2] = system: KB; test: Cytotoxicity against human KB cells assessed as cell viability after 72 hrs by MTT assay; assay type: functional, cell-based
[3] = system: Candida albicans; test: […] isolate Candida albicans assessed as inhibition of microbial growth incubated for 24 hrs by spectrophotometry; assay type: functional
[4] = system: Staphylococcus aureus; test: Antibacterial activity against Staphylococcus aureus CIP53.156 assessed as inhibition of microbial growth incubated for 24 hrs by spectrophotometry; assay type: functional

Row | SMILES | MIC [1] [µg/mL] | MIC [3] [µg/mL] | MIC [4] [µg/mL] | IC50 [2] [nM]
1 | CC[C@@](C)(NC(=O)[C@H](CCC(N)=O)NC(=O)C(C)(C)NC(=O)[C@H](CC(C)C)NC(=O)[C@H](C)NC(=O)CNC(=O)C(C)(C)NC(C)=O)C(=O)N[C@@H](CC(C)C)C(=O)NC(C)(C)C(=O)N[C@@H](C)C(=O)NC(C)(C)C(=O)NC(C)(C)C(=O)NC(C)(C)C(=O)N[C@@H](CCC(N)=O)C(=O)N[C@H](CO)Cc1ccccc1 | > 100 | > 100 | > 100 | 800
2 | CC[C@@](C)(NC(=O)[C@H](CCC(N)=O)NC(=O)C(C)(C)NC(=O)[C@H](CC(C)C)NC(=O)[C@H](C)NC(=O)CNC(=O)C(C)(C)NC(C)=O)C(=O)N[C@H](C(=O)NC(C)(C)C(=O)N[C@@H](C)C(=O)NC(C)(C)C(=O)NC(C)(C)C(=O)NC(C)(C)C(=O)N[C@@H](CCC(N)=O)C(=O)N[C@H](CO)Cc1ccccc1)C(C)C | > 100 | > 100 | 25 | 800
3 | CC(=O)NC(C)(C)C(=O)N1CCC[C@H]1C(=O)NC(C)(C)C(=O)N[C@@H](C)C(=O)NC(C)(C)C(=O)N[C@@H](C)C(=O)N[C@@H](CCC(N)=O)C(=O)NC(C)(C)C(=O)N[C@H](C(=O)NC(C)(C)C(=O)NCC(=O)N[C@@H](CC(C)C)C(=O)NC(C)(C)C(=O)N1CCC[C@H]1C(=O)N[C@H](C(=O)NC(C)(C)C(=O)NC(C)(C)C(=O)N[C@H](CCC(N)=O)C(=O)N[C@H](CCC(N)=O)C(=O)N[C@H](CO)Cc1ccccc1)C(C)C)C(C)C |  |  |  | 9000
4 | CC(=O)NC(C)(C)C(=O)NCC(=O)N[C@@H](C)C(=O)N[C@@H](CC(C)C)C(=O)NC(C)(C)C(=O)N[C@@H](CCC(N)=O)C(=O)NC(C)(C)C(=O)N[C@@H](CC(C)C)C(=O)NC(C)(C)C(=O)N[C@@H](C)C(=O)NC(C)(C)C(=O)NC(C)(C)C(=O)NC(C)(C)C(=O)N[C@@H](CCC(N)=O)C(=O)N[C@H](CO)Cc1ccccc1 (Ac-[Aib]GAL[Aib]Q[Aib]L[Aib]A[Aib][Aib][Aib]Q[Phe(ol)]) | > 100 | > 100 | > 100 | 4300

Now from value to compound, other results behind:

Row | MIC [1] [µg/mL] | MIC [3] [µg/mL] | MIC [4] [µg/mL] | SMILES | IC50 [2] [nM]
5 | > 100 | > 100 | 25 | CC[C@@](C)(NC(=O)[C@H](CC(C)C)NC(=O)[C@H](C)NC(=O)CNC(=O)C(C)(C)NC(C)=O)C(=O)N[C@@H](CCC(N)=O)C(=O)N[C@](C)(CC)C(=O)N[C@H](C(=O)NC(C)(C)C(=O)N[C@@H](C)C(=O)NC(C)(C)C(=O)NC(C)(C)C(=O)NC(C)(C)C(=O)N[C@@H](CCC(N)=O)C(=O)N[C@H](CO)Cc1ccccc1)C(C)C | 700
6 | > 100 | > 100 | 25 | CC(=O)NC(C)(C)C(=O)NCC(=O)N[C@@H](C)C(=O)N[C@@H](CC(C)C)C(=O)NC(C)(C)C(=O)N[C@@H](CCC(N)=O)C(=O)NC(C)(C)C(=O)N[C@H](C(=O)NC(C)(C)C(=O)N[C@@H](C)C(=O)NC(C)(C)C(=O)NC(C)(C)C(=O)NC(C)(C)C(=O)N[C@@H](CCC(N)=O)C(=O)N[C@H](CO)Cc1ccccc1)C(C)C (Ac-[Aib]GAL[Aib]Q[Aib]V[Aib]A[Aib][Aib][Aib]Q[Phe(ol)]) | 2400
